Measured values reported in US6638921B1, “Pyridoxal-5-phosphate derivatives as HIV integrase inhibitors” (Pharmacor Inc., priority 2002, dated 2003).
Structures can show the parent of a compound that is named as a salt. Where two headings read alike, the source gives them in different places.

Legend:
[1] = system: HIV-1 laboratory viral strain NL4.3; assay: Anti-viral assay in vitro (MTT, infected MT-4 cells); assay type: cell-based; settings: reduce virus replication in cell culture by 50%, six days
Procedure: (§1) To evaluate the EC50 of our compounds, various drug concentrations are incubated with the infected cell for six days and then the metabolic activity of the cells is monitored by the MTT assay. (See A. J. Japour et al, Antimicrobial Agents and Chemotherapy, 37, 1095-1101, 1993 and R. Pauwels et al. Journal of Virological Methods, 20, 309-321, 1988).
(§2) We use the laboratory viral strain NL4.3 as wild type virus and the cell line used is MT-4 which is a T-cell line highly sensitive to HIV-1. We also use some WT clinical strains. To address the resistance issue we assay the inhibitors with NL4.3 mutants which are designed to be resistant to specific commercially available inhibitors. The following reagents were obtained through the AIDS Research and Reference Reagent Program, division of AIDS, NIAID, NIH: pNL4.3 from Dr. Malcolm Martin; MT-4 cell line from Dr. Douglas Richman. Wild type (WT) clinical strains were obtained from “Laboratoire de santé publique du Québec”.

[2] = molecular target: HIV-1 integrase (Human immunodeficiency virus type 1 group M subtype B, UniProt P12497); assay: HIV-1 integrase inhibition assay in vitro (radiolabeled duplex substrate, U5 end of HIV LTR); assay type: biochemical
Procedure: For the purpose of Table 1, the HIV-1 integrase inhibition assay was carried out following a known procedure (Burke, Jr. T. R. et al., J. Med. Chem. 38, 4171-4178 (1995)). A suitable radiolabeled duplex substrate corresponding to the U5 end of the HIV LTR was used.

[3] = system: MT-4 cell line; assay: Cytotoxicity assay in vitro (MTT, virus omitted); assay type: cell-based
Procedure: as §1, §2
The same MTT assay is used to evaluate the CCIC50 of our compounds except that the virus is omitted.

[4] = concentration of drug required to reduce the enzyme activity by 50%, read-out: IC50
[5] = Human immunodeficiency virus 1, MT4, 144 h
[6] = IC50, concentration of drug required to reduce the enzyme activity by 50%

6-[4-(N-(2-E-Caprolactamyl)-N-isobutylsulfamoyl)phenylazo]-pyridoxal-5-phosphate Hydrochloride [Example 5]
EC50 ([1]; read-out: EC50): 17 µM
IC50 [2, 4]: 0.6 µM
CCIC50 [3]: >100 µM

Cc1nc(N=Nc2cccc(C(=O)O)c2C)c(COP(=O)(O)O)c(C=O)c1O [Example 1, 6-(3-Carboxy-2-methylphenylazo)-pyridoxal-5-phosphate]
EC50 [1, 5]: 2 µM
IC50 [2, 6]: 1.2 µM
CCIC50 ([3]; human, 6 days): >100 µM

Cc1nc(N=Nc2ccc(S(N)(=O)=O)cc2)c(COP(=O)(O)O)c(C=O)c1O [Example 2, 6-(4-Sulfamoylphenylazo)-pyridoxal-5-phosphate]
EC50 [1, 5]: 5 µM
IC50 [2, 6]: 0.25 µM
CCIC50 ([3]; human, 6 days): >100 µM

Cc1nc(N=Nc2ccc(S(=O)(=O)NC34CC5CC(CC(C5)C3)C4)cc2)c(COP(=O)(O)O)c(C=O)c1O [Example 3, 6-[4-(N-(1-Adamantyl)sulfamoyl)phenylazo]-pyridoxal-5-phosphate Hydrochloride]
EC50 [1, 5]: 19.8 µM
IC50 [2, 6]: 0.2 µM
CCIC50 ([3]; human, 6 days): 12 µM

Cc1nc(N=Nc2cccc(C(=O)NC34CC5CC(CC(C5)C3)C4)c2)c(COP(=O)(O)O)c(C=O)c1O [Example 4, 6-[3-(N-(1-Adamantyl)carbamoyl)phenylazo]-pyridoxal-5-phosphate Hydrochloride]
EC50 [1, 5]: 50 µM
IC50 [2, 6]: 0.4 µM
CCIC50 ([3]; human, 6 days): 13 µM

Cc1nc(N=Nc2cccc(S(=O)(=O)N3CCCCC3)c2)c(COP(=O)(O)O)c(C=O)c1O [Example 6, 6-[3-(1-Piperidinesulfonyl)phenylazo]-pyridoxal-5-phosphate]
IC50 [2, 4]: 4.37 µM

Cc1nc(N=Nc2ccc(S(=O)(=O)N3CCCCC3)cc2)c(COP(=O)(O)O)c(C=O)c1O [Example 7, 6-[4-(1-Piperidinesulfonyl)phenylazo]-pyridoxal-5-phosphate]
EC50 [1, 5]: 12.5 µM
IC50 [2, 6]: 2.5 µM
CCIC50 ([3]; human, 6 days): >100 µM

Cc1nc(/N=N/c2cccc(C(=O)N3CCCCC3)c2)c(COP(=O)(O)O)c(C=O)c1O [Example 8, 6-[3-(1-Piperidinecarbonyl)phenylazo]-pyridoxal-5-phosphate]
IC50 [2, 4]: 2.8 µM

Cc1nc(N=Nc2cccc(S(=O)(=O)NC(C)(C)C)c2)c(COP(=O)(O)O)c(C=O)c1O [Example 9, 6-[3-(tert-Butylsulfamoyl)phenylazo]-pyridoxal-5-phosphate]
EC50 [1, 5]: 15 µM
IC50 [2, 6]: 3 µM
CCIC50 ([3]; human, 6 days): 57 µM

Cc1nc(N=Nc2ccc(S(=O)(=O)NC(C)(C)C)cc2)c(COP(=O)(O)O)c(C=O)c1O [Example 10, 6-[4-(tert-Butylsulfamoyl)phenylazo]-pyridoxal-5-phosphate]
IC50 [2, 4]: 4.25 µM

Cc1nc(N=Nc2ccc(C(=O)NC(C)(C)C)cc2)c(COP(=O)(O)O)c(C=O)c1O [Example 11, 6-[4-(tert-Butylcarbamoyl)phenylazo]-pyridoxal-5-phosphate]
IC50 [2, 4]: 2.73 µM

Cc1nc(N=Nc2cccc(S(=O)(=O)N3CCCC3)c2)c(COP(=O)(O)O)c(C=O)c1O [Example 12, 6-[3-(1-Pyrrolinesulfonyl)phenylazo]-pyridoxal-5-phosphate]
IC50 [2, 4]: 2.9 µM

Cc1nc(N=Nc2cccc(C(=O)NCC(C)C)c2)c(COP(=O)(O)O)c(C=O)c1O [Example 13, 6-[3-(Isobutylcarbamoyl)phenylazo]-pyridoxal-5-phosphate]
EC50 [1, 5]: 50 µM
IC50 [2, 6]: 1.3 µM
CCIC50 ([3]; human, 6 days): 90 µM

Cc1nc(N=Nc2ccc(C(=O)NC3CCCCC3)cc2)c(COP(=O)(O)O)c(C=O)c1O [Example 14, 6-[4-(Cyclohexylcarbamoyl)phenylazo]-pyridoxal-5-phosphate]
IC50 [2, 4]: 4.36 µM

Cc1nc(N=Nc2ccc(S(=O)(=O)N3CCCC3)cc2)c(COP(=O)(O)O)c(C=O)c1O [Example 15, 6-[4-(1-Pyrrolinesulfonyl)phenylazo]-pyridoxal-5-phosphate]
IC50 [2, 4]: 1.7 µM

Cc1nc(N=Nc2cccc(S(=O)(=O)NCC(C)C)c2)c(COP(=O)(O)O)c(C=O)c1O [Example 16, 6-[3-(Isobutylsulfamoyl)phenylazo]-pyridoxal-5-phosphate]
IC50 [2, 4]: 1.9 µM

Cc1nc(N=Nc2ccc(S(=O)(=O)NCC(C)C)cc2)c(COP(=O)(O)O)c(C=O)c1O [Example 17, 6-[4-(Isobutylsulfamoyl)phenylazo]pyridoxal-5-phosphate]
IC50 [2, 4]: 2.45 µM

Cc1nc(N=Nc2ccc(S(=O)(=O)NC3CCCCC3)cc2)c(COP(=O)(O)O)c(C=O)c1O [Example 18, 6-[4-(Cyclohexylsulfamoyl)phenylazo]-pyridoxal-5-phosphate]
IC50 [2, 4]: 2.2 µM

CCCCNS(=O)(=O)c1cccc(N=Nc2nc(C)c(O)c(C=O)c2COP(=O)(O)O)c1 [Example 19, 6-[3-(Butylsulfamoyl)phenylazo]-pyridoxal-5-phosphate]
IC50 [2, 4]: 2 µM

CNS(=O)(=O)c1ccc(N=Nc2nc(C)c(O)c(C=O)c2COP(=O)(O)O)cc1 [Example 20, 6-[4-(Methylsulfamoyl)phenylazo]-pyridoxal-5-phosphate]
IC50 [2, 4]: 1.2 µM

Cc1nc(N=Nc2cccc(S(=O)(=O)NCCO)c2)c(COP(=O)(O)O)c(C=O)c1O [Example 21, 6-[3-(2-Hydroxyethylsulfamoyl)phenylazo]-pyridoxal-5-phosphate]
IC50 [2, 4]: 2.45 µM

Cc1nc(N=Nc2cc(C(=O)O)cc(C(=O)O)c2)c(COP(=O)(O)O)c(C=O)c1O [Example 22, 6-(3,5-Dicarboxyphenylazo)-pyridoxal-5-phosphate]
IC50 [2, 6]: 0.43 µM
CCIC50 ([3]; human, 6 days): >100 µM

Cc1cc(NS(=O)(=O)c2ccc(N=Nc3nc(C)c(O)c(C=O)c3COP(=O)(O)O)cc2)nc(C)n1 [Example 23]
IC50 [2, 4]: 2.75 µM

Cc1nc(N=Nc2ccc(S(=O)(=O)Nc3nccs3)cc2)c(COP(=O)(O)O)c(C=O)c1O [Example 24, 6-[4-(2-Thiazolylsulfamoyl)phenylazo]-pyridoxal-5-phosphate]
EC50 [1, 5]: 23 µM
IC50 [2, 6]: 0.365 µM
CCIC50 ([3]; human, 6 days): >100 µM

Cc1nc(N=Nc2ccc(S(=O)(=O)Nc3ncccn3)cc2)c(COP(=O)(O)O)c(C=O)c1O [Example 25, 6-[4-(2-Pyrimidylsulfamoyl)phenylazo]-pyridoxal-5-phosphate]
EC50 [1, 5]: 4.3 µM
IC50 [2, 6]: 0.3 µM
CCIC50 ([3]; human, 6 days): >100 µM

CNS(=O)(=O)c1cccc(N=Nc2nc(C)c(O)c(C=O)c2COP(=O)(O)O)c1 [Example 26, 6-[3-(Methylsulfamoyl)phenylazo]-pyridoxal-5-phosphate]
IC50 [2, 4]: 3.7 µM

Cc1nc(N=Nc2ccc(S(=O)(=O)Nc3ccon3)cc2)c(COP(=O)(O)O)c(C=O)c1O [Example 32, 6-[4-(3-Isoazolylsulfamoyl)phenylazo]-pyridoxal-5-phosphate]
EC50 [1, 5]: 50 µM
IC50 [2, 4]: 3 µM

Cc1nc(N=Nc2ccccc2[N+](=O)[O-])c(COP(=O)(O)O)c(C=O)c1O [Example 33, 6-(2-Nitrophenylazo)-pyridoxal-5-phosphate]
EC50 [1, 5]: 33 µM
IC50 [2, 4]: 5.25 µM

Cc1nc(N=Nc2cccc(Cl)c2)c(COP(=O)(O)O)c(C=O)c1O [Example 34, 6-(3-Chlorophenylazo)-pyridoxal-5-phosphate]
EC50 [1, 5]: 45 µM
IC50 [2, 4]: 2.6 µM

Cc1nc(N=Nc2cccc(S(N)(=O)=O)c2)c(COP(=O)(O)O)c(C=O)c1O [Example 35, 6-(3-Sulfamoylphenylazo)-pyridoxal-5-phosphate]
IC50 [2, 4]: 12.8 µM

Cc1nc(N=Nc2cccc(C(=O)NC3=NCCCN3)c2)c(COP(=O)(O)O)c(C=O)c1O [Example 36, 6-[3-(2-(1,4,5,6-Tetrahydropyrimidyl)carbamoyl)phenylazo]-pyridoxal-5-phosphate]
IC50 [2, 4]: 6.2 µM

Cc1nc(N=Nc2ccc(C#N)cc2)c(COP(=O)(O)O)c(C=O)c1O [Example 42, 6-(4-Cyanophenylazo)-pyridoxal-5-phosphate]
IC50 [2, 6]: 11.3 µM
CCIC50 ([3]; human, 6 days): >100 µM

Cc1nc(N=Nc2ccc(C(N)=O)cc2)c(COP(=O)(O)O)c(C=O)c1O [Example 43, 6-(4-Carbamoylphenylazo)-pyridoxal-5-phosphate]
IC50 [2, 4]: 8.7 µM

Cc1nc(N=Nc2ccc(S(=O)(=O)Nc3ccccc3F)cc2)c(COP(=O)(O)O)c(C=O)c1O [Example 44, 6-[4-(2-Fluorophenylsulfamoyl)phenylazo]pyridoxal-5-phosphate]
IC50 [2, 4]: 7.7 µM

Cc1nc(N=Nc2ccc(S(=O)(=O)Nc3cccc(F)c3)cc2)c(COP(=O)(O)O)c(C=O)c1O [Example 45, 6-[4-(3-Fluorophenylsulfamoyl)phenylazo]-pyridoxal-5-phosphate]
IC50 [2, 4]: 10.5 µM

Cc1nc(N=Nc2ccc(S(=O)(=O)Nc3ccc(F)cc3)cc2)c(COP(=O)(O)O)c(C=O)c1O [Example 46, 6-[4-(4-Fluorophenylsulfamoyl)phenylazo]-pyridoxal-5-phosphate]
IC50 [2, 6]: 1.5 µM
CCIC50 ([3]; human, 6 days): 32 µM

Cc1nc(N=Nc2ccc(S(=O)(=O)Nc3ncccn3)cc2)c(COP(=O)(O)O)c(C=NO)c1O [Example 53, 6-[4-(2-Pyrimidylsulfamoyl)phenylazo]-pyridoxal-5-phosphate Oxime]
EC50 [1, 5]: 15 µM
IC50 [2, 4]: 2 µM
